Measured values: patent publication US7307061B2, “β-peptoids with antimicrobial activity” (E.I. du Pont de Nemours and Company, priority 2004, dated 2007)
Values after ≈ are worked out from the molar mass of the structure shown.

System: E. coli ATCC 25922
Format: cell-based
Conditions: ATCC 25922, 24 h
Method: The minimal inhibitory concentration (MIC) for the peptoids was determined in sterile microtiter plates in a final volume of 200 μl using Trypticase Soy Broth (TSB; Difco Laboratories, Detroit, Mich.) as the growth medium. Serial two-fold dilutions of the peptoid stock were made in the plate wells such that concentrations ranged from 512 to 2 μg/ml in a volume of 100 μL. Each well was then inoculated with 100 μl of a dilute suspension of bacteria in TSB yielding a final concentration of 1×10^4 bacteria/ml. The final peptoid concentrations ranged from 256 μg/ml to […]. The assay plates were incubated at 37° C. for 24 hours inside a Bioscreen C microtitre plate reader (Thermo Labsystems; Vantaa, Finland). Optical Density (OD) of the medium at 600 nm was recorded every 20 minutes to monitor cell growth. The lowest concentration of peptoid preventing bacterial growth during the 24 hr period was defined as the MIC.
Table 1. Antibacterial activity of peptoids against E. coli ATCC 25922. The general structure for each of the Compounds 20 to 41 is represented by Formula V: […]

MIC [µg/mL]	SMILES
>512	CC(=O)N(CCC(=O)N(CCC(=O)N(CCN)CCC(=O)N(CCC(=O)N(CCC(=O)N(CCN)CCC(=O)N(CCC(=O)N(CCC(=O)N(CCN)CCC(=O)NC(CCCCN)C(N)=O)CC(C)C)CC(C)C)CC(C)C)CC(C)C)CC(C)C)CC(C)C (stereo not drawn) [Compound 33, Ac(Ibu-Ibu-Aminoethyl)3-Lys-NH2]
128 (≈ 78.3 µM)	CC(=O)N(CCC(=O)N(CCN)CCC(=O)N(CCC(=O)N(CCN)CCC(=O)N(CCC(=O)N(CCN)CCC(=O)N(CCC(=O)N(CCN)CCC(=O)N(CCC(=O)N(CCN)CCC(=O)N(CCC(=O)N(CCN)CCC(=O)NC(CCCCN)C(N)=O)CC(C)C)CC(C)C)CC(C)C)CC(C)C)CC(C)C)CC(C)C (centres unmarked) [Compound 26, Ac(Ibu-Aminoethyl)6-Lys-NH2]
256 (≈ 126 µM)	CC(=O)N(CCC(=O)N(CCC(=O)N(CCN)CCC(=O)N(CCC(=O)N(CCC(=O)N(CCN)CCC(=O)N(CCC(=O)N(CCC(=O)N(CCN)CCC(=O)N(CCC(=O)N(CCC(=O)N(CCN)CCC(=O)N(CCC(=O)N(CCC(=O)N(CCN)CCC(=O)NC(CCCCN)C(N)=O)CC(C)C)CC(C)C)CC(C)C)CC(C)C)CC(C)C)CC(C)C)CC(C)C)CC(C)C)CC(C)C)CC(C)C (stereo not drawn) [Compound 36, Ac(Ibu-Ibu-Aminoethyl)5-Lys-NH2]
128 (≈ 84.1 µM)	CC(=O)N(CCC(=O)N(CCCN(C)C)CCC(=O)N(CCC(=O)N(CCC(=O)N(CCCN(C)C)CCC(=O)N(CCC(=O)N(CCC(=O)N(CCCN(C)C)CCC(=O)N(CCC(=O)NC(CCCCN)C(N)=O)CC(C)C)Cc1ccccc1)CC(C)C)Cc1ccccc1)CC(C)C)Cc1ccccc1 (centres unmarked) [Compound 20, Ac(Bz-DMAP-Ibu)3-Lys-NH2]
256 (≈ 154 µM)	CC(=O)N(CCC(=O)N(CCC(=O)N(CCN)CCC(=O)N(CCC(=O)N(CCC(=O)N(CCN)CCC(=O)N(CCC(=O)N(CCC(=O)N(CCN)CCC(=O)N(CCC(=O)N(CCC(=O)N(CCN)CCC(=O)NC(CCCCN)C(N)=O)CC(C)C)CC(C)C)CC(C)C)CC(C)C)CC(C)C)CC(C)C)CC(C)C)CC(C)C (stereo not drawn) [Compound 34, Ac(Ibu-Ibu-Aminoethyl)4-Lys-NH2]
>512	CC(=O)N(CCC(=O)N(CCCN(C)C)CCC(=O)N(CCC(=O)N(CCCN(C)C)CCC(=O)N(CCC(=O)N(CCCN(C)C)CCC(=O)N(CCC(=O)N(CCCN(C)C)CCC(=O)N(CCC(=O)N(CCCN(C)C)CCC(=O)N(CCC(=O)N(CCCN(C)C)CCC(=O)N(CCC(=O)N(CCCN(C)C)CCC(=O)N(CCC(=O)N(CCCN(C)C)CCC(=O)NC(CCCCN)C(N)=O)CC(C)C)CC(C)C)CC(C)C)CC(C)C)CC(C)C)CC(C)C)CC(C)C)CC(C)C (centres unmarked) [Compound 29, Ac(Ibu-DMAP)8-Lys-NH2]
>512	CC(=O)N(CCC(=O)N(CCC(=O)N(CCCCN)CCC(=O)N(CCC(=O)N(CCC(=O)N(CCCCN)CCC(=O)N(CCC(=O)N(CCC(=O)N(CCCCN)CCC(=O)NC(CCCCN)C(N)=O)CC(C)C)CC(C)C)CC(C)C)CC(C)C)CC(C)C)CC(C)C (stereo not drawn) [Compound 38, Ac(Ibu-Ibu-Aminobutyl)3-Lys-NH2]
128 (≈ 65.1 µM)	CC(=O)N(CCC(=O)N(CCC(=O)N(CCCN(C)C)CCC(=O)N(CCC(=O)N(CCC(=O)N(CCCN(C)C)CCC(=O)N(CCC(=O)N(CCC(=O)N(CCCN(C)C)CCC(=O)N(CCC(=O)N(CCC(=O)N(CCCN(C)C)CCC(=O)NC(CCCCN)C(N)=O)CC(C)C)Cc1ccccc1)CC(C)C)Cc1ccccc1)CC(C)C)Cc1ccccc1)CC(C)C)Cc1ccccc1 (centres unmarked) [Compound 24, Ac(Bz-Ibu-DMAP)4-Lys-NH2]
128 (≈ 44.8 µM)	CC(=O)N(CCC(=O)N(CCCN(C)C)CCC(=O)N(CCC(=O)N(CCC(=O)N(CCCN(C)C)CCC(=O)N(CCC(=O)N(CCC(=O)N(CCCN(C)C)CCC(=O)N(CCC(=O)N(CCC(=O)N(CCCN(C)C)CCC(=O)N(CCC(=O)N(CCC(=O)N(CCCN(C)C)CCC(=O)N(CCC(=O)N(CCC(=O)N(CCCN(C)C)CCC(=O)N(CCC(=O)NC(CCCCN)C(N)=O)CC(C)C)Cc1ccccc1)CC(C)C)Cc1ccccc1)CC(C)C)Cc1ccccc1)CC(C)C)Cc1ccccc1)CC(C)C)Cc1ccccc1)CC(C)C)Cc1ccccc1 (centres unmarked) [Compound 22, Ac(Bz-DMAP-Ibu)6-Lys-NH2]
512 (≈ 337 µM)	CC(=O)N(CCC(=O)N(CCC(=O)N(CCCN(C)C)CCC(=O)N(CCC(=O)N(CCC(=O)N(CCCN(C)C)CCC(=O)N(CCC(=O)N(CCC(=O)N(CCCN(C)C)CCC(=O)NC(CCCCN)C(N)=O)CC(C)C)Cc1ccccc1)CC(C)C)Cc1ccccc1)CC(C)C)Cc1ccccc1 (centres unmarked) [Compound 23, Ac(Bz-Ibu-DMAP)3-Lys-NH2]
128 (≈ 53.1 µM)	CC(=O)N(CCC(=O)N(CCCN(C)C)CCC(=O)N(CCC(=O)N(CCC(=O)N(CCCN(C)C)CCC(=O)N(CCC(=O)N(CCC(=O)N(CCCN(C)C)CCC(=O)N(CCC(=O)N(CCC(=O)N(CCCN(C)C)CCC(=O)N(CCC(=O)N(CCC(=O)N(CCCN(C)C)CCC(=O)N(CCC(=O)NC(CCCCN)C(N)=O)CC(C)C)Cc1ccccc1)CC(C)C)Cc1ccccc1)CC(C)C)Cc1ccccc1)CC(C)C)Cc1ccccc1)CC(C)C)Cc1ccccc1 (centres unmarked) [Compound 21, Ac(Bz-DMAP-Ibu)5-Lys-NH2]
512 (≈ 514 µM)	CC(=O)N(CCC(=O)N(CCCCN)CCC(=O)N(CCC(=O)N(CCCCN)CCC(=O)N(CCC(=O)N(CCCCN)CCC(=O)NC(CCCCN)C(N)=O)CC(C)C)CC(C)C)CC(C)C (centres unmarked) [Compound 41, Ac(Ibu-Aminobutyl)3-Lys-NH2]
>512	CC(=O)N(CCC(=O)N(CCC(=O)N(CCCCN)CCC(=O)N(CCC(=O)N(CCC(=O)N(CCCCN)CCC(=O)NC(CCCCN)C(N)=O)CC(C)C)CC(C)C)CC(C)C)CC(C)C (stereo not drawn) [Compound 37, Ac(Ibu-Ibu-Aminobutyl)2-Lys-NH2]
256 (≈ 121 µM)	CC(=O)N(CCC(=O)N(CCN)CCC(=O)N(CCC(=O)N(CCN)CCC(=O)N(CCC(=O)N(CCN)CCC(=O)N(CCC(=O)N(CCN)CCC(=O)N(CCC(=O)N(CCN)CCC(=O)N(CCC(=O)N(CCN)CCC(=O)N(CCC(=O)N(CCN)CCC(=O)N(CCC(=O)N(CCN)CCC(=O)NC(CCCCN)C(N)=O)CC(C)C)CC(C)C)CC(C)C)CC(C)C)CC(C)C)CC(C)C)CC(C)C)CC(C)C (centres unmarked) [Compound 32, Ac(Ibu-Aminoethyl)8-Lys-NH2]
128 (≈ 53.1 µM)	CC(=O)N(CCC(=O)N(CCC(=O)N(CCCN(C)C)CCC(=O)N(CCC(=O)N(CCC(=O)N(CCCN(C)C)CCC(=O)N(CCC(=O)N(CCC(=O)N(CCCN(C)C)CCC(=O)N(CCC(=O)N(CCC(=O)N(CCCN(C)C)CCC(=O)N(CCC(=O)N(CCC(=O)N(CCCN(C)C)CCC(=O)NC(CCCCN)C(N)=O)CC(C)C)Cc1ccccc1)CC(C)C)Cc1ccccc1)CC(C)C)Cc1ccccc1)CC(C)C)Cc1ccccc1)CC(C)C)Cc1ccccc1 (centres unmarked) [Compound 25, Ac(Bz-Ibu-DMAP)5-Lys-NH2]

SMILES	MIC [µg/mL]
CC(=O)N(CCC(=O)N(CCCN(C)C)CCC(=O)N(CCC(=O)N(CCCN(C)C)CCC(=O)N(CCC(=O)N(CCCN(C)C)CCC(=O)N(CCC(=O)N(CCCN(C)C)CCC(=O)N(CCC(=O)N(CCCN(C)C)CCC(=O)NC(CCCCN)C(N)=O)CC(C)C)CC(C)C)CC(C)C)CC(C)C)CC(C)C (centres unmarked) [Compound 27, Ac(Ibu-DMAP)5-Lys-NH2]	>512
CC(=O)N(CCC(=O)N(CCN)CCC(=O)N(CCC(=O)N(CCN)CCC(=O)N(CCC(=O)N(CCN)CCC(=O)N(CCC(=O)N(CCN)CCC(=O)N(CCC(=O)N(CCN)CCC(=O)NC(CCCCN)C(N)=O)CC(C)C)CC(C)C)CC(C)C)CC(C)C)CC(C)C (centres unmarked) [Compound 30, Ac(Ibu-Aminoethyl)5-Lys-NH2]	>256
